Patent US20200187502A1, “MICROBIOCIDAL OXADIAZOLE DERIVATIVES” (SYNGENTA PARTICIPATIONS AG, priority 2017, published 2020)

Columns and labels:
Phakopsora pachyrhizi = experiment: Fungicidal activity, soybean leaf disc preventative (Asian soybean rust); assay type: in vivo; conditions: foliar, 200 ppm in the applied formulation, soybean leaf disks, compared to untreated control, 12 to 14 days after application, read-out: disease control
Summary of the method: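 Read-out is percent disease control relative to untreated check discs, assessed once untreated discs show adequate disease, 12 to 14 days after application. Compounds, tested at 200 ppm in the applied formulation, are sprayed onto soybean leaf discs one day before inoculation with a spore suspension.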

[1] = tested on: Puccinia recondita f. Sp. Tritici; experiment: Fungicidal activity, wheat leaf disc preventative (brown rust); assay type: in vivo; conditions: foliar, 200 ppm in the applied formulation, wheat leaf segments cv. Kanzler, compared to untreated control, 7 to 9 days after application, read-out: disease control
Summary of the method: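 Wheat cv. Kanzler leaf segments on agar were sprayed with formulated compound in water, then inoculated with spores 1 day later. Incubated at 19° C, 75% rh, 12 h light/12 h dark; percent disease control versus untreated scored 7 to 9 days after application.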

[2] = tested on: Puccinia recondita f. Sp. Tritici; experiment: Fungicidal activity, wheat leaf disc curative (brown rust); assay type: in vivo; conditions: foliar, 200 ppm in the applied formulation, wheat leaf segments cv. Kanzler, curative (applied 1 day after inoculation), compared to untreated control, 6 to 8 days after application, read-out: disease control
Summary of the method: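 Spray application came one day after spore inoculation of Kanzler wheat leaf segments kept on agar. Conditions: 19° C, 75% relative humidity, dark before treatment and 12 h light/12 h dark after. Efficacy = % disease control compared with untreated, 6–8 days post-application.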

[3] = tested on: Glomerella lacenarium (Colletotrichum lacenarium); experiment: Fungicidal activity, liquid culture, cucumber preventative (anthracnose); assay type: cell-based; conditions: 20 ppm in the applied formulation, liquid culture in PDB, inhibition of growth measured photometrically 3 to 4 days after application, compared to untreated control, read-out: disease control
Summary of the method: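 In liquid culture, cryo-stored conidia in potato dextrose broth were exposed to compound delivered from DMSO solution. Growth inhibition was measured photometrically after 3 to 4 days at 24° C.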

Row | melting point [°C] | SMILES | pest or weed control at 200 ppm (Phakopsora pachyrhizi) [%] | pest or weed control at 200 ppm [1] [%] | pest or weed control at 200 ppm [2] [%] | inhibition of growth at 20 ppm [3] [%]
1 | 93.2 to 95.7 | CNC(=O)N(Cc1ccc(-c2noc(C(F)(F)F)n2)s1)OC [Compound 1.2, 1-methoxy-3-methyl-1-[[5-[5-(trifluoromethyl)-1,2,4-oxadiazol-3-yl]-2-thienyl]methyl]urea] | ≥ 80 | ≥ 80 | ≥ 80 | ≥ 80
2 | – | CC(C)NC(=O)N(C)Cc1ccc(-c2noc(C(F)(F)F)n2)s1 [Compound 4.17, 3-isopropyl-1-methyl-1-[[5-[5-(trifluoromethyl)-1,2,4-oxadiazol-3-yl]-2-thienyl]methyl]urea] | ≥ 80 | ≥ 80 | ≥ 80 | ≥ 80
3 | – | CC(C)C(=O)N(C)Cc1ccc(-c2noc(C(F)(F)F)n2)s1 [Compound 4.10, N,2-dimethyl-N-[[5-[5-(trifluoromethyl)-1,2,4-oxadiazol-3-yl]-2-thienyl]methyl]propanamide] | ≥ 80 | ≥ 80 | ≥ 80 | ≥ 80
4 | – | CC(=O)NCC(=O)N(C)Cc1ccc(-c2noc(C(F)(F)F)n2)s1 [Compound 4.33, 2-acetamido-N-methyl-N-[[5-[5-(trifluoromethyl)-1,2,4-oxadiazol-3-yl]-2-thienyl]methyl]acetamide] | ≥ 80 | ≥ 80 | ≥ 80 | ≥ 80
5 | – | CCC(C)C(=O)N(Cc1ccc(-c2noc(C(F)(F)F)n2)s1)OC (centres unmarked) [Compound 1.19, N-methoxy-2-methyl-N-[[5-[5-(trifluoromethyl)-1,2,4-oxadiazol-3-yl]-2-thienyl]methyl]butanamide] | ≥ 80 | ≥ 80 | ≥ 80 | ≥ 80
6 | – | CON(Cc1ccc(-c2noc(C(F)(F)F)n2)s1)C(=O)CC1CC1 [Compound 1.22, 2-cyclopropyl-N-methoxy-N-[[5-[5-(trifluoromethyl)-1,2,4-oxadiazol-3-yl]-2-thienyl]methyl]acetamide] | ≥ 80 | ≥ 80 | ≥ 80 | ≥ 80
7 | – | CC(C)N(Cc1ccc(-c2noc(C(F)(F)F)n2)s1)C(=O)C1CC1 [Compound 5.5, N-isopropyl-N-[[5-[5-(trifluoromethyl)-1,2,4-oxadiazol-3-yl]-2-thienyl]methyl]cyclopropanecarboxamide] | ≥ 80 | ≥ 80 | ≥ 80 | ≥ 80
8 | – | CN(Cc1ccc(-c2noc(C(F)(F)F)n2)s1)C(=O)CC1CC1 [Compound 5.18, 2-cyclopropyl-N-methyl-N-[[5-[5-(trifluoromethyl)-1,2,4-oxadiazol-3-yl]-2-thienyl]methyl]acetamide] | ≥ 80 | ≥ 80 | ≥ 80 | ≥ 80
9 | 82.2 to 83.8 | CON(Cc1ccc(-c2noc(C(F)(F)F)n2)s1)C(=O)NC1CC1 [Compound 1.27, 3-cyclopropyl-1-methoxy-1-[[5-[5-(trifluoromethyl)-1,2,4-oxadiazol-3-yl]-2-thienyl]methyl]urea] | ≥ 80 | ≥ 80 | ≥ 80 | ≥ 80
10 | – | NC(=O)C(=O)N(Cc1ccc(-c2noc(C(F)(F)F)n2)s1)C1CC1 [Compound 6.10, N′-cyclopropyl-N′-[[5-[5-(trifluoromethyl)-1,2,4-oxadiazol-3-yl]-2-thienyl]methyl]oxamide] | ≥ 80 | ≥ 80 | ≥ 80 | ≥ 80
11 | – | COCC(=O)N(Cc1ccc(-c2noc(C(F)(F)F)n2)s1)OC [Compound 1.9, N,2-dimethoxy-N-[[5-[5-(trifluoromethyl)-1,2,4-oxadiazol-3-yl]-2-thienyl]methyl]acetamide] | ≥ 80 | ≥ 80 | ≥ 80 | ≥ 80
12 | – | COCCCC(=O)N(Cc1ccc(-c2noc(C(F)(F)F)n2)s1)OC [Compound 1.23, N,4-dimethoxy-N-[[5-[5-(trifluoromethyl)-1,2,4-oxadiazol-3-yl]-2-thienyl]methyl]butanamide] | ≥ 80 | ≥ 80 | ≥ 80 | ≥ 80
